Experimental data from PMC9405973, “Altered Conformational Landscape upon Sensing Guanine Nucleotides in a Disease Mutant of Elongation Factor-like 1 (EFL1) GTPase” (Biomolecules, 2022).
Where “and” joins values, the source holds several entries; their conditions need not be identical. Equal values may be shown once. Read-outs that look alike come from different tables or passages of the source.

Key:
Efl1 R1086Q•Sdo1 = target: T1, Efl1 R1086Q•Sdo1 (Saccharomyces cerevisiae, UniProt P53893, R1086Q); assay: ITC: binding of guanine nucleotides to pre-formed complex Efl1 R1086Q•Sdo1; conditions: for ΔCpb: from ΔHb at 25–35 °C; for -TΔs / Δg / Δh / κ (heterotropic cooperativity): Effect of Mg^2+
T1 construct: made in house; host or cells: Efl1: Saccharomyces cerevisiae; Sdo1: Escherichia coli C41
Description: All calorimetric measurements were carried out using MicroCal^TM iTC200 System (GE Healthcare, Northampton, MA, USA) in a temperature range of 25–35 °C. Experiments were performed in a buffer consisting of 50 mM Tris-HCl (pH 8.0), 150 mM NaCl, 100 µM DTT, and 5% glycerol. In the titrations with Mg^2+-bound nucleotides, both the ligand and protein solutions contained 5 mM MgCl2. In the case of titrations with Mg^2+-free nucleotide, both the ligand and protein solutions were supplemented with 2 mM EDTA to sequester any residual trace of metal ions in solution. Protein samples and ligands were prepared in the exact same buffer prior to each titration. Protein concentration in the cell comprised 30–50 µM GTPase, while the ligand concentration in the syringe was 2–3 mM for GTP, MgGTP, GDP, and MgGDP. To ensure measuring the interaction of the complex Efl1 R1086Q•Sdo1 with the nucleotide, an eight-fold concentration excess of Sdo1 was used compared with that of the enzyme. […] The titration schedule consisted of 15–20 consecutive injections of the ligand with 5 min intervals between injections and a stirring rate of 700 rpm. The dilution heat of the ligand was obtained by adding the ligand to a buffer solution under identical conditions and with the same injection schedule used for the protein sample. All samples were degassed for 10 min prior to the experiment.
The binding isotherms obtained for the isolated GTPase in the presence of Mg(II) were analysed using a ternary model in which the protein can bind to the free nucleotide (G(D)TP) or that bound to one magnesium ion (MgG(D)TP); additionally, GTP may also exist in the form of Mg2GTP, which is not recognised by the protein. The derivation of this coupled-equilibria model can be reviewed in [6, 31]. The binding constant (Kb), the enthalpy change (∆Hb), and the stoichiometry (n) were obtained with the non-linear routines implemented in Origin 5.0 (OriginLab, Co., Northampton, MA, USA) using a one-binding-site model as described in [32, 33]. The heterotropic cooperativity for the binding of guanine nucleotides and Sdo1 to Efl1 R1086Q were calculated as previously described in [6, 32]. The cooperative effects of Mg(II) on the binding of guanine nucleotides to Efl1 R1086Q alone and bound to Sdo1 were calculated as follows:κ = KE-MG/KE-G κ = KES-MG/KES-G Δh = ΔHE-MG − ΔHE-G Δh = ΔHES-MG − ΔHES-G where subscripts E-MG and E-G stand for the association of the metal-bound and metal-free guanine nucleotide with mutant Efl1, respectively. Corresponding expressions applied to the heterotropic cooperativity of the binding of nucleotides to the preformed complex, Efl1•Sdo1 (ES).
The impact of Sdo1 on the binding of Efl1 R1086Q to guanine nucleotides in the presence of magnesium ions is contained in KES-MG and ΔHES-MG relative to the KE-S and ΔHE-S values; analogous ratios report the effects in the absence of Mg(II):κ = KES-MG/KE-S κ = KES-G/KE-G Δh = ΔHES-MG − ΔHE-S Δh = ΔHES-G − ΔHE-G
The corresponding cooperative entropy change was calculated as:TΔs = Δh − Δg = Δh + RTlnκ
The detailed methodology and equations to compute the changes in the accessible surface area (∆ASA) of the GTPase upon binding to nucleotides and the ∆S energetic-based parameters are reported in [6]. Briefly, the water-accessible areas (ASAs) were computed using programme NACCESS, while the changes in accessible surface area (ΔASA) upon the formation of each GTPase–nucleotide complex were estimated considering the difference between the complex and the sum of the free interacting partners. The calculated polar (ΔASAp) and apolar (ΔASAap) area changes were subsequently used to estimate the free molecular partners. […]

wild-type Efl1 = conditions: cited from earlier work; for -TΔSb / Kd / ΔGb / ΔHb / ΔCpb: guanine nucleotide
[1] = Effect of Mg^2+, wild-type Efl1 − Sdo1, 30 °C
[2] = Effect of Sdo1, wild-type Efl1 − Mg^2+, 30 °C

T1 sequence (P53893 whole entry R1086Q): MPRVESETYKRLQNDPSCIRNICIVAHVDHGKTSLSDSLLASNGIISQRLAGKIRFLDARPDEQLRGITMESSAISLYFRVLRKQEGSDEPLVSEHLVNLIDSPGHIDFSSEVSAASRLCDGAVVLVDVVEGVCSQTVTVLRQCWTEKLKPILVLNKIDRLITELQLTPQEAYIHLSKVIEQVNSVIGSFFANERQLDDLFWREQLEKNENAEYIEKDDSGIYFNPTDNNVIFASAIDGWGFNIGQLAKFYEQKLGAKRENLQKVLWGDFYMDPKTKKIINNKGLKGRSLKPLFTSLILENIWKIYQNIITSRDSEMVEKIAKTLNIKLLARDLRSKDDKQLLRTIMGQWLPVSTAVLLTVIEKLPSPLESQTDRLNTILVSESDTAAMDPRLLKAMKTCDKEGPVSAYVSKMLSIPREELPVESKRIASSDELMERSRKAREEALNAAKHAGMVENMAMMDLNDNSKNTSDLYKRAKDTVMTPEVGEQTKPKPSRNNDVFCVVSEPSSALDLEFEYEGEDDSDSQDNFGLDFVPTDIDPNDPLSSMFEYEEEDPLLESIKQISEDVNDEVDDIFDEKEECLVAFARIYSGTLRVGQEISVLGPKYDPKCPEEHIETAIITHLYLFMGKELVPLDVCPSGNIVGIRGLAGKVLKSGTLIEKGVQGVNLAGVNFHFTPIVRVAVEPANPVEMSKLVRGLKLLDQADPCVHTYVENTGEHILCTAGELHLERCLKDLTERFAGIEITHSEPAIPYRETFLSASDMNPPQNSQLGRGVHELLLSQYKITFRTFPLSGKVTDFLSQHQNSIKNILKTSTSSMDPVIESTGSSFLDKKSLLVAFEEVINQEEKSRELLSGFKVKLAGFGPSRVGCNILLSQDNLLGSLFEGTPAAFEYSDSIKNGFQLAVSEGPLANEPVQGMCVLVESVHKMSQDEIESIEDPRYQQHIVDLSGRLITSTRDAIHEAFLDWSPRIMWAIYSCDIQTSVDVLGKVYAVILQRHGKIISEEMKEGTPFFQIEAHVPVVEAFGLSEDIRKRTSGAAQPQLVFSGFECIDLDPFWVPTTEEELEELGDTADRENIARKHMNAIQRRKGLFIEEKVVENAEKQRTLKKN
T1 sequence (Q07953 whole entry, further chain): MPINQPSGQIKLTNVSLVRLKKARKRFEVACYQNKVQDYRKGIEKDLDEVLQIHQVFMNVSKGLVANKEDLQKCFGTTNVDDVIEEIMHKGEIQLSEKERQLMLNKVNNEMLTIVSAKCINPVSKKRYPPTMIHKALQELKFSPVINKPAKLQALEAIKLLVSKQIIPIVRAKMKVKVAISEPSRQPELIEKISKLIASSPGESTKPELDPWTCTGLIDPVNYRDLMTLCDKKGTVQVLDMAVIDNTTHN

## Nc1nc2c(ncn2[C@@H]2O[C@H](COP(=O)(O)OP(=O)(O)O)[C@@H](O)[C@H]2O)c(=O)[nH]1 [GDP]
Efl1 R1086Q•Sdo1; +Mg^2+ vs −Mg^2+
  fold greater affinity in the presence of magnesium ions: 2–5 times
Efl1 R1086Q•Sdo1; +Mg^2+, 25 °C
  -TΔSb: -4.7 kcal/mol
  ΔGb: -6.9 kcal/mol
  ΔHb: -2.1 ± 0.08 kcal/mol
  Kd: 9 ± 2 µM
Efl1 R1086Q•Sdo1; +Mg^2+, 30 °C
  -TΔSb: -3.3 kcal/mol
  Nconfres (number of residues changing conformation, absolute value): 25
  Nconfrotb (number of routable bonds changing conformation, absolute value): 34
  ΔCpconf: −267 cal mol^−1 K^−1
  ΔCprb: −48 cal mol^−1 K^−1
  ΔGb: -7.1 kcal/mol
  ΔHb: -3.8 ± 0.05 kcal/mol
  ΔSb: 11 cal mol^−1 K^−1
  ΔSconf: −57 cal mol^−1 K^−1
  ΔSsolv: 75 cal mol^−1 K^−1
  −ΔASAconf: 1198 Å^2
  Kd: 8 ± 1 µM
Efl1 R1086Q•Sdo1; +Mg^2+, 35 °C
  -TΔSb: -2.0 kcal/mol
  ΔGb: -7.3 kcal/mol
  ΔHb: -5.3 ± 0.11 kcal/mol
  Kd: 6 ± 1 µM
Efl1 R1086Q•Sdo1; +Mg^2+
  ΔCpb: −315 cal mol^−1 K^−1 and −315 ± 9 cal mol^−1 K^−1
Efl1 R1086Q•Sdo1; Efl1 R1086Q + Sdo1, 25 °C
  -TΔs: -0.7 kcal/mol
  Δg: -0.4 kcal/mol
  Δh: 0.3 kcal/mol
  κ (heterotropic cooperativity): 1.9
Efl1 R1086Q•Sdo1; Efl1 R1086Q + Sdo1, 30 °C
  -TΔs: -2.4 kcal/mol
  Δg: -0.8 kcal/mol
  Δh: 1.6 kcal/mol
  κ (heterotropic cooperativity): 3.7
Efl1 R1086Q•Sdo1; Efl1 R1086Q + Sdo1, 35 °C
  -TΔs: -3.7 kcal/mol
  Δg: -1.0 kcal/mol
  Δh: 2.7 kcal/mol
  κ (heterotropic cooperativity): 5.4
Efl1 R1086Q•Sdo1; −Mg^2+, 25 °C
  Kd: 17 ± 0.5 µM
  -TΔSb: -4.0 kcal/mol
  ΔGb: -6.5 kcal/mol
  ΔHb: -2.5 ± 0.4 kcal/mol
Efl1 R1086Q•Sdo1; −Mg^2+, 30 °C
  Kd: 30 ± 4 µM
  -TΔSb: -1.0 kcal/mol
  Nconfres (number of residues changing conformation, absolute value): 50
  Nconfrotb (number of routable bonds changing conformation, absolute value): 72
  ΔCpconf: −520 cal mol^−1 K^−1
  ΔGb: -6.3 kcal/mol
  ΔHb: -5.4 ± 0.6 kcal/mol
  ΔSb: 3 cal mol^−1 K^−1
  ΔSconf: −121 cal mol^−1 K^−1
  ΔSsolv: 132 cal mol^−1 K^−1
  −ΔASAconf: 2334 Å^2
Efl1 R1086Q•Sdo1; −Mg^2+, 35 °C
  Kd: 34 ± 5 µM
  -TΔSb: 1.7 kcal/mol
  ΔGb: -6.30 kcal/mol
  ΔHb: -8.0 ± 0.8 kcal/mol
Efl1 R1086Q•Sdo1; −Mg^2+
  ΔCpb: −550 cal mol^−1 K^−1 and −550 ± 18 cal mol^−1 K^−1
wild-type Efl1; [1]
  -TΔs: -0.5 kcal/mol
  Δg: 0.6 kcal/mol
  Δh: 1.1 kcal/mol
  κ (heterotropic cooperativity): 0.4
wild-type Efl1; [2]
  -TΔs: 1.5 kcal/mol
  Δg: 0.8 kcal/mol
  Δh: -0.7 kcal/mol
  κ (heterotropic cooperativity): 0.3
wild-type Efl1; +Mg^2+, 30 °C
  -TΔSb: -0.5 kcal/mol
  Kd: 37 µM
  ΔGb: -6.1 kcal/mol
  ΔHb: -5.6 ± 0.2 kcal/mol
wild-type Efl1; +Mg^2+
  ΔCpb: −310 ± 5 cal mol^−1 K^−1 and −310 cal mol^−1 K^−1
wild-type Efl1; −Mg^2+, 30 °C
  -TΔSb: 0.0 kcal/mol
  Kd: 16 µM
  ΔGb: -6.7 kcal/mol
  ΔHb: -6.7 ± 0.3 kcal/mol
wild-type Efl1; −Mg^2+
  ΔCpb: −318 ± 35 cal mol^−1 K^−1 and −318 cal mol^−1 K^−1
